Legend:
[1] = system: C6BAG cells co-cultured with C6VIKWT cells; experiment: Simultaneous co-culture, ganciclovir sensitivity of recipient colonies; format: cell-based, rat; details: 100 μM ganciclovir; donor:recipient ratios of 0.1 and 1
Experimental: For simultaneous co-culture experiments, 10^3 recipient cells, C6BAG or C6BBAG were plated together with 10^5 C6VIK or C6VIKWT donor cells, in duplicate. Controls were C6BAG or C6BBAG cells co-plated with C6BU1 cells at a similar ratio (1:100). After seven days, ganciclovir was added at varying concentrations (0 to 300 μM) and culture was processed as above. To assess the effects of the ratio of the donor cells to recipient cells, simultaneous co-culture experiments were also done varying the ratio of the donor cell, C6VIKWT, to the recipient cell, C6BAG, from 0.1 to 100.

[2] = system: C6 cells exposed to CM from C6; experiment: C6 colony formation after conditioned medium from drug-exposed cells; format: cell-based, rat; details: for Colony numbers: colonies six days later
[3] = system: C6 cells exposed to CM from C6-P450; experiment: as above; details: for Colony numbers: colonies six days later
[4] = system: C6 tumors; experiment: Cyclophosphamide sensitivity of subcutaneous tumors; format: in vivo, nude mice; details: day 17
Experimental: (§1) Animal Studies: For animal injections, cultured cells in the proliferative stage were replated 24 hours before harvesting, then trypsinized, centrifuged at low speed, washed once by resuspension in Hank's buffered saline, centrifuged, and then resuspended in DMEM without serum at a density of 5×10^6 cells/mL. For subcutaneous injections, 10^6 C450-8 or C6 cells in 200 μl were injected into the flanks of athymic mice (NCY/Sed, nu/nu; MGH breeding colony; five animals per group). After 3 days, when tumors had reached a volume of about 0.01 cm^3 (as measured by external calipers) (Lee et al., Neurosurgery 26:598-605 (1990) and again at 14 days, 100 μl injections of either 20 mg CPA (Sigma) per mL saline or 100 μl saline were performed directly into the tumor mass. Animals were sacrificed at 17 days by euthanasia.

[5] = system: C450-8 tumors; experiment: as above; format: in vivo, nude mice; details: day 17
Experimental: as §1

[6] = system: cytochrome P450 2B1-positive cells (9L-ZP and L450-2); experiment: cells; details: Rattus norvegicus, 120 h
[7] = 2 mg CPA intratumorally day 3 and 14

Nc1nc(O)c2ncn(COC(CO)CO)c2n1 [ganciclovir]
ganciclovir sensitivity compared to C6BAG cells alone [1]: no significant difference

O=P1(N(CCCl)CCCl)NCCCO1 (stereo not drawn) [cyclophosphamide]
Colony numbers ([2]; CM after 0.5 h of 0.5 mM CPA): 247 ± 3
Colony numbers ([2]; CM after 1.5 h of 0.5 mM CPA): 256 ± 7
Colony numbers ([2]; CM after 3 h of 0.5 mM CPA): 257 ± 1
Colony numbers ([2]; CM after 6 h of 0.5 mM CPA): 260 ± 4
Colony numbers ([2]; CM after 10 h of 0.5 mM CPA): 245 ± 5
Colony numbers ([2]; CM after 24 h of 0.5 mM CPA): 255 ± 14
Colony numbers ([2]; CM after 32 h of 0.5 mM CPA): 240 ± 2
Colony numbers ([2]; CM after 48 h of 0.5 mM CPA): 245 ± 6
Colony numbers ([2]; CM after 72 h of 0.5 mM CPA): 260 ± 5
Colony numbers ([2]; CM after 96 h of 0.5 mM CPA): 260 ± 9
Secretion effect, C6 colony number ([2]; Table V panel C, CM from treated C6 cultures): 271±14.2
Colony numbers ([3]; CM after 0.5 h of 0.5 mM CPA): 263 ± 6
Colony numbers ([3]; CM after 1.5 h of 0.5 mM CPA): 267 ± 9
Colony numbers ([3]; CM after 3 h of 0.5 mM CPA): 144 ± 19
Colony numbers ([3]; CM after 6 h of 0.5 mM CPA): 94 ± 8
Colony numbers ([3]; CM after 10 h of 0.5 mM CPA): 12 ± 0.3
Colony numbers ([3]; CM after 24 h of 0.5 mM CPA): 0
Colony numbers ([3]; CM after 32 h of 0.5 mM CPA): 0
Colony numbers ([3]; CM after 48 h of 0.5 mM CPA): 0
Colony numbers ([3]; CM after 72 h of 0.5 mM CPA): 0
Colony numbers ([3]; CM after 96 h of 0.5 mM CPA): 0
Inhibition of C6 cell colony formation ([3]; CM after exposure to CPA for 24 hours): Complete inhibition
Toxicity of conditioned medium to C6 cell growth / colony formation ([3]; CM from treated C6-P450 cells, nine days): highly toxic
Secretion effect, C6 colony number ([3]; Table V panel C, CM from treated C6-P450 cultures): 0
Tumor volume [4, 7]: 0.093±0.035 cm^3
ratio of the mean volumes of CPA-treated to saline-treated tumors [4]: 0.124
Tumor volume [5, 7]: 0.016±0.003 cm^3
ratio of the mean volumes of CPA-treated to saline-treated tumors [5]: 0.035
IC50 [6]: ~70 µM
